US20220289719A1, “HETEROCYCLIC COMPOUNDS AS MNK INHIBITORS” (NANJING INNOCARE PHARMA TECH CO., LTD., priority 2017, published 2022)
Structures can show the parent of a compound that is named as a salt.

Legend:
[1] = target: T1, Human recombinant full-length MNK1 protein (Homo sapiens, UniProt Q9BUB5); assay: MNK1 inhibitory activity assay (ADP-Glo in vitro kinase assay); type: biochemical; settings: 10 concentration points
T1 construct: Human recombinant full-length MNK1 protein; purchased Thermo PR9138A
Protocol: MNK1 Inhibitory Activity Assay: Evaluation of the effects of compounds of the invention on […] (MNK1) activity using in vitro kinase assays. The experimental methods are summarized as follows: The in vitro activity of MNK1 was determined by measuring the level of ADP produced in the kinase reaction using the ADP-Glo Kinase Assay Kit. The reaction buffer consisted of the following components: 50 mM HEPES, pH 7.5, 10 mM MgCl2, 1 mM EGTA, 0.01% Brij35. Human recombinant full-length MNK1 protein (Thermo, Cat. No. PR9138A) was diluted with a reaction buffer to a 3.13 ng/uL kinase solution. The substrate reaction solution consisted of a substrate diluted to 0.75 mg/ml in reaction buffer ([…], available from […] Domestic Company), 2250 uM ATP, the ADP-Glo reagent and kinase assay solution from Promega kit (Promega, V9102). […] If the compound IC50 value is very low, the initial concentration of the compound can be lowered. To a 384-well assay plate (Thermo, Cat. No. 264706) were added 1 uL of compound solution and 2 uL of MNK1 kinase solution. The mixture was mixed well and incubated for 30 minutes at room temperature; then 2 uL of substrate reaction solution was added, the reaction mixture was incubated for 120 minutes at room temperature. The reaction was terminated after an equal volume of 5uLADP-Glo solution was added, and the remaining ATP was completely consumed. After mixing for 60 minutes at room temperature, 10 ul of the kinase assay solution was added, and the mixture was uniformly mixed, and allowed to stand at room temperature for 40 minutes in the dark. The detection solution converts ADP into new ATP through coupled luciferase/luciferin, and ATP is converted into optical signal by Ultr-GloTM luciferase, which can be detected by Envision. The intensity of the light signal is proportional correlated with the amount of ADP produced in the kinase reaction, therefore, the activity of MNK1 kinase can be determined. In this experiment, the group without protein was used as a negative control (100% inhibition). The group with protein but without compounds was used as a positive control (0% inhibition).

MV-4-11 cells = assay: MV-4-11 cell proliferation inhibition assay (CellTiter-Glo luminescent cell viability); type: cell-based; settings: Homo sapiens, MV4-11, 120 hours, CTG readout, 8 concentration points
Protocol: MV-4-11 Cell Proliferation Inhibition Assay:
The effect of the compounds of the present invention on the proliferation of MV-4-11 cells was evaluated using a luminescent cell viability assay.
The experimental methods are summarized as follows:
The cell proliferation status of MV-4-11 was detected using the CellTilter-Glo (CTG) assay kit: the luminescence signal generated in the assay is proportional to the number of viable cells in the culture medium by using a unique, stable luciferase to detect viable cell metabolism indicator ATP.
CellTilter-Glo reagent (Promega, G7572) consists of CellTilter-Glo lyophilized powder and ellTilter-Glo buffer, which can be used to dissolve the lyophilized powder into the buffer.
MV-4-11 cells (ATCC #CRL-9591, purchased from Nanjing Kezhen, item number CBP60522) were cultured in IMDM complete medium (Thermofisher, 12440053) containing 10% FBS (GBICO, 10099-141) and 100 units/ml streptomycin mixture (Thermofisher, 15140122). when the cells coverage rearched 80-90% in the culture container, dilute and plant with 0.25% trypsin (including EDTA) (Thermofisher, 25200056) in a white 384-well plate (Thermofisher, 164610), 400 cells per well (36 μl […] complete medium), then 384-well plates were incubated overnight (18-20 hours) in a 37° C., % CO2 incubator.
Compounds were solubilized to 10 mM in 100% DMSO, then sequentially diluted in 4-fold with DMSO to a minimum concentration of […], and each concentration was diluted 50-fold with FBS-free IMDM medium. If the compound IC50 value is very low, the initial concentration of the compound can be lowered. 4 μl of the diluted IMDM compound was added to each well and mixed gently by centrifugation. The GI50 (50% Growth Inhibition) of the compounds was determined in this experiment, including the T0 group before the cell proliferation (including the T0 positive and T0 negative control groups), and the T5 group after 120 hours of cell proliferation (containing the T5 positive and T5 negative control groups).). T0 represents the number of cells before cell proliferation before compound addition, including positive control: the group with the addition of cells and 0.2% DMSO was used as the positive control. The group with medium alone was used as the negative control, T0 group before the addition of compound will be used for CTG test. […] Gently shake for 5 minutes to ensure sufficient cell lysis, leave for 10 minutes to stabilize the luminescence signal, and then read the luminescence signal with EnVision (Perkin Elmer).
The inhibition of MV-4-11 cell proliferation of the compounds was calculated by the following formula: […]
The IC50 value of the compound was calculated from the 8 concentration points by XLfit (ID Business Solutions Ltd., UK) software using the following formula: […]

T1 sequence (Q9BUB5 whole entry): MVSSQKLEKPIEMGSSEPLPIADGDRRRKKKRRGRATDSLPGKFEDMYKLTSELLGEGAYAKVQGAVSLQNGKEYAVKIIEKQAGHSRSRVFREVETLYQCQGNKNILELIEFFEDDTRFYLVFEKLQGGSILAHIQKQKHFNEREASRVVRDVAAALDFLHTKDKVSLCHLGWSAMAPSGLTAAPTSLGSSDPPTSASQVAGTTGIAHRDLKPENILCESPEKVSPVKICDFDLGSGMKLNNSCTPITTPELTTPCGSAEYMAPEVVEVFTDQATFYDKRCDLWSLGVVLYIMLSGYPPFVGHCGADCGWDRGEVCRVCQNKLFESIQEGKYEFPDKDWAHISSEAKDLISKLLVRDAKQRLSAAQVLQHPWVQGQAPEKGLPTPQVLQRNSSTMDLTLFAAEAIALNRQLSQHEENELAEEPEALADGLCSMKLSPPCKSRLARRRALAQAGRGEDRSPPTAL

Structure (SMILES) | IC50 [1] | IC50 (MV-4-11 cells)
COc1cc2[nH]ncc2cc1Nc1cc(NC(=O)C2CC2)ncn1 [Compound 4, 5-(6-Cyclopropionamidopyrimidin-4-ylamino)-6-methoxy-1H-indazole] | 1.45 nM | 301 nM
COc1c(Nc2cc(NC(=O)C3CC3)ncn2)ccc2c1CNC2=O [Compound 67, 5-((6-Cyclopropanamidopyrimidin-4-yl)amino)-4-methoxyisodihydroindole-1-one] | 2.7 nM | 483 nM
COc1c(Nc2cc(Nc3ccccn3)ncn2)ccc2c1CNC2=O [Compound 68, 5-((6-(Pyridin-2-ylamino)pyrimidin-4-yl)amino)-4-methoxyisodihydroindol-1-one] | 8.2 nM | 295 nM
COc1c(Nc2ncnc3[nH]ccc23)ccc2c1CNC2=O [Compound 79, 5-((7H-Pyrrolo[2,3-d]pyrimidin-4-yl)amino)-4-methoxyisoindolin-1-one] | 20.9 nM | 
COc1c(Nc2ncnc3[nH]cnc23)ccc2c1CNC2=O [Compound 80, 5-((9H-Purin-6-yl)amino)-4-methoxyisoindolin-1-one] | 11.7 nM | 
COc1c(Nc2ncnc3[nH]ncc23)ccc2c1CNC2=O [Compound 81, 5-((1H-Pyrazolo[3,4-d]pyrimidin-4-yl)amino)-4-methoxyisoindolin-1-one] | 103 nM | 
CNc1cncnc1Nc1ccc2c(c1OC)CNC2=O [Compound 82, 5-((5-Methylaminopyrimidin-4-yl)amino)-4-methoxyisodihydroindole-1-one formate] | 154 nM | 
COc1c(Nc2cc(Nc3ncccc3Cl)ncn2)ccc2c1CNC2=O [Compound 83, 5-((6-((3-Chloropyridin-2-yl)amino)pyrimidin-4-yl)amino)-4-methoxyisoindolin-1-one] | 96.6 nM | 
COc1c(Nc2cc(Nc3cnccn3)ncn2)ccc2c1CNC2=O [Compound 84, 5-((6-(Pyrazin-2-ylamino)pyrimidin-4-yl)amino)-4-methoxyisodihydroindol-1-one formate] | 5 nM | 278 nM
COc1c(Nc2cc(Nc3ccc(Cl)cn3)ncn2)ccc2c1CNC2=O [Compound 85, 5-((6-((5-Chloropyridin-2-yl)amino)pyrimidin-4-yl)amino)-4-methoxyisoindolin-1-one] | 13.9 nM | 
COc1c(Nc2cc(Nc3cccc(Cl)n3)ncn2)ccc2c1CNC2=O [Compound 86, 5-((6-((6-Chloropyridin-2-yl)amino)pyrimidin-4-yl)amino)-4-methoxyisoindolin-1-one] | 18.5 nM | 
COc1c(Nc2cc(Nc3cc(Cl)ccn3)ncn2)ccc2c1CNC2=O [Compound 87, 5-((6-((4-Chloropyridin-2-yl)amino)pyrimidin-4-yl)amino)-4-methoxyisoindolin-1-one] | 19.1 nM | 
